The subject of experiment [1] is HeLa. The experiment can be described thus: Cytotoxicity against human HeLa cells by MTT assay.
The nature of experiment [2]: Cytotoxicity against human HCT116 cells by MTT assay. In kind it is functional, cell-based. The following applies: HCT-116. (Tetrazolium assays rely on reduction of a dye to a coloured formazan, in cell work by metabolically active cells.)
For experiment [3], the system named is A549. In words: Cytotoxicity against human A549 cells by MTT assay. In kind it is functional, cell-based.
Experiment [4] concerns Vero. In words: Cytotoxicity against African green monkey Vero cells by MTT assay. In kind it is cell-based. The following applies: Chlorocebus sabaeus.
The test system of experiment [5] is HeLa. In words: Induction of apoptosis in human HeLa cells assessed as accumulation at subG1 phase at 25 uM by propidium iodide staining based flow cytometry. In kind it is functional, cell-based. To be noted: TDE = time-dependent effect. Background: Flow cytometry measures light scatter and fluorescence of single cells or particles in a stream.
The subject of experiment [6] is EAT. The experiment can be described thus: Antitumor activity against mouse EAT implanted in Swiss albino mouse assessed as reduction in body weight at 10 mg/kg injected into peritoneum and measured on day 11. Details: dose 10 mg/kg. Type of experiment: functional, organism-based.
Experiment [7] has as its system EAT. The experiment can be described thus: Antitumor activity against mouse EAT implanted in Swiss albino mouse assessed as reduction in ascites fluid volume at 10 mg/kg injected into peritoneum and measured on day 12. Details: dose 10 mg/kg. Type of experiment: functional, organism-based.
In experiment [8] the test system is EAT. In words: Antitumor activity against mouse EAT implanted in Swiss albino mouse assessed as reduction in tumor cell viability at 10 mg/kg injected into peritoneum and measured on day 12 by trypan blue dye exclusion assay. In kind it is functional, organism-based. Set-up: dose 10 mg/kg.
Experiment [9] deals with EAT. The experiment can be described thus: Inhibition of peritoneal angiogenesis of mouse EAT implanted in Swiss albino mouse at 10 mg/kg injected into peritoneum. Details: dose 10 mg/kg. In kind it is functional, organism-based.
Experiment [10] has as its system EAT. In words: Inhibition of peritoneal angiogenesis of mouse EAT implanted in Swiss albino mouse assessed as reduction in micro vessel density at 10 mg/kg injected into peritoneum by hematoxylin and eosin staining method. Type of experiment: functional, organism-based. Details: dose 10 mg/kg.
The nature of experiment [11]: Inhibition of peritoneal angiogenesis of mouse EAT implanted in Swiss albino mouse assessed as reduction in micro vessel density by measuring number of micro vessels per high power field at 10 mg/kg injected into peritoneum by hematoxylin and eosin staining method (reference value: 54 +/- 6 vessels/high power field). Type of experiment: functional.
A short description of experiment [12]: Inhibition of VEGF production in mouse EAT implanted in Swiss albino mouse peritoneal cavity at 10 mg/kg injected into peritoneum by ELISA method (reference value: 2412 +/- 10 ng). Type of experiment: functional. On the technique in general: An ELISA detects its analyte on a solid surface through an enzyme-linked reagent.
In experiment [13] the test system is EAT. In words: […] of apoptosis in mouse EAT implanted in Swiss albino mouse assessed as induction of DNA fragmentation at 10 mg/kg injected into peritoneum by ethidium bromide staining based electrophoresis method. In kind it is functional, organism-based. Set-up: dose 10 mg/kg.
Experiment [14] relates to EAT. In words: […] of apoptosis in mouse EAT implanted in Swiss albino mouse assessed as induction of cell shrinkage at 10 mg/kg injected into peritoneum by Giemsa staining based microscopy. In kind it is functional, organism-based. Details: dose 10 mg/kg.
The test system of experiment [15] is EAT. The experiment can be described thus: […] of apoptosis in mouse EAT implanted in Swiss albino mouse assessed as induction of small blebs formation at 10 mg/kg injected into peritoneum by Giemsa staining based microscopy. Details: dose 10 mg/kg. In kind it is functional, organism-based.
Experiment [16] concerns EAT. The experiment can be described thus: […] of apoptosis in mouse EAT implanted in Swiss albino mouse assessed as induction of apoptotic bodies formation at 10 mg/kg injected into peritoneum by Giemsa staining based microscopy. Type of experiment: functional, organism-based. Details: dose 10 mg/kg.

In general, IC50 refers to the point on the concentration scale where inhibition reaches its midpoint.

Calls of active or inactive are those of the source. The rule behind the calls is not given here. Where only a bound is given, the exact number is not on record here.

In the case of `CCCc1nc2c(C)cc(-c3nc4ccccc4n3C)cc2n1S(=O)(=O)c1ccc(Br)cc1`, the 50% inhibitory concentration (IC50) in experiment [1] is 24.7 µM; in [2] it was 49.3 µM; in experiment [3], 35.1 µM; in [4], > 50 µM.
In the case of `CCCc1nc2c(C)cc(-c3nc4ccccc4n3C)cc2n1S(=O)(=O)c1ccccc1`, the IC50 in [1] was 23.8 µM; in experiment [2], > 50 µM; in experiment [3], > 50 µM; in experiment [4], > 50 µM.
As for `CCCc1nc2c(C)cc(-c3nc4ccccc4n3C)cc2n1S(=O)(=O)c1ccc(Cl)cc1`, the IC50 in experiment [1] was 21.4 µM; in experiment [2] it was 36.8 µM; in experiment [3] it was > 50 µM; in experiment [4], > 50 µM.
For the compound `CCCc1nc2c(C)cc(-c3nc4ccccc4n3C)cc2n1S(=O)(=O)c1ccc(OC)cc1`, the IC50 is 18.3 µM in experiment [1], 19.1 µM in experiment [2], 34.7 µM in experiment [3] and > 50 µM in experiment [4].
For the compound `CCCc1nc2c(C)cc(-c3nc4ccccc4n3C)cc2n1S(=O)(=O)c1ccccc1Br`, the concentration for half-maximal inhibition (IC50) in experiment [1] was > 50 µM.
For `CCCc1nc2c(C)cc(-c3nc4ccccc4n3C)cc2n1S(=O)(=O)c1ccc(C)cc1`, the half-inhibitory concentration (IC50) in experiment [1] is 20.1 µM; in experiment [2], 41.6 µM; in experiment [3], > 50 µM; in experiment [4], > 50 µM.
Regarding `CCCc1nc2c(C)cc(-c3nc4ccccc4n3C)cc2n1S(=O)(=O)c1ccccc1Cl`, the IC50 in [1] is > 50 µM.
Take `CCCc1nc2c(C)cc(-c3nc4ccccc4n3C)cc2n1S(=O)(=O)c1ccc(F)cc1`: the IC50 in experiment [1] was 16.7 µM; in experiment [2], 19.9 µM; in experiment [3], 32.2 µM; in [4] it was > 50 µM. In addition, the values for the Activity entry in [5], in experiment [11] and in experiment [12] were “tde”, 8 and 225 ng, respectively. For the same compound, the inhibition result in experiment [6], in [7], in [8], in [9] and in experiment [10] was “Active” in each case. Also, the result in experiment [13], in experiment [14], in experiment [15] and in experiment [16] was Active.
As to `CCCc1nc2c(C)cc(-c3nc4ccccc4n3C)cc2n1S(=O)(=O)c1c(C)cc(C)cc1C`, the IC50 in experiment [1] was 21 µM; in [2], 29.9 µM; in experiment [3], > 50 µM; in experiment [4], > 50 µM.
As for `CCCc1nc2c(C)cc(-c3nc4ccccc4n3C)cc2n1S(=O)(=O)c1cc(Cl)ccc1Cl`, the half-maximal inhibitory concentration (IC50) in [1] is > 50 µM.
